Patent publication US11938143B2, “Compositions comprising 2′-deoxycytidine analogs and use thereof for the treatment of sickle cell disease, thalassemia, and cancers” (AkiraBio, Inc., priority 2021, dated 2024)

Tests used:
[1] = tested on: sickle erythroid progenitors; assay: Erythroid differentiation markers CD71 and CD235a by flow cytometry in sickle erythroid progenitors; type: cell-based, human; details: 48 hours
Method: (§1) FIGS. 6A-6B show representative data pertaining to primary sickle erythroid progenitors generated from peripheral blood mononuclear cells isolated from sickle cell patients using a two-phase liquid culture system. Cells treated for 48 hours were analyzed. […] Shown in the graph is the mean±SEM for n=6.
Additional studies were carried out in primary sickle erythroid progenitors were next conducted. Using a previously established two-phase culture system, (See NRF2 mediates γ-globin gene regulation and fetal hemoglobin induction in human erythroid progenitors Xingguo Zhu et al., Experimental Hematology 2019; 70:85-96, incorporated by reference herein) AB1 was evaluated in progenitors cultured from peripheral blood mononuclear cells (PBMC) isolated from sickle cell subjects, at concentrations of 3, 6, and 10 nM. PBMCs were isolated by Ficoll® Paque separation and cultured in IMDM supplemented with erythropoietin (2 IU), stem cell factor (10 ng/mL) and Interleukin 3 (10 ng/mL). On day seven, drug controls HU 75 μM, Dec 200 nM and AB1 (3, 6, and 10 nM) were added for 48 hours. Cell viability was assessed with Trypan blue, and markers of erythroid differentiation were assessed by flow cytometry using antibodies for CD71 and CD235a, to evaluate changes in differentiation. Proportions of F-cells and MFI were assayed by FACScan using staining with fluorescein isothiocyanate (FITC) anti-human HbF antibody (Bethyl). In our experience, primary erythroid progenitors are more sensitive to drug toxicity, so a lower dose range of AB1 was used. […] As a marker of early erythroid differentiation, CD71^+ progenitors were not affected by Dec or AB1 at any dose tested. In notable contrast, there was a 7-fold increase in CD71^+ cells mediated by HU (FIG. 6B).

HbF = assay: F-cells and MFI by flow cytometry in sickle erythroid progenitors; type: cell-based, human; details: 48 hours
Method: FIGS. 8A-8D show representative data pertaining to the induction of AB1 HbF and inhibition of DNMT1 levels. Sickle erythroid progenitors were treated with the various agents shown for 48 hours. […] Shown in the graph is the mean±SEM for n=6 replicates. […] In FIGS. 8C-8D, “UT” indicates untreated cells; “HU” indicates hydroxyurea; “DEC” indicates decitabine; and “AB1” indicates disclosed compound AB1; the concentrations are indicated above the graph below the text indicating treatment compound.
Additional studies were carried out in primary sickle erythroid progenitors were next conducted. Using a previously established two-phase culture system, (See NRF2 mediates γ-globin gene regulation and fetal hemoglobin induction in human erythroid progenitors Xingguo Zhu et al., Experimental Hematology 2019; 70:85-96, incorporated by reference herein) AB1 was evaluated in progenitors cultured from peripheral blood mononuclear cells (PBMC) isolated from sickle cell subjects, at concentrations of 3, 6, and 10 nM. […] Cell viability was assessed with Trypan blue, and markers of erythroid differentiation were assessed by flow cytometry using antibodies for CD71 and CD235a, to evaluate changes in differentiation. […]
We assessed effects of AB1 at the transcription levels by RT-qPCR analysis. […]

[2] = tested on: sickle erythroid progenitors; assay: In vitro sickling of erythroid progenitors under overnight hypoxia (2% oxygen); type: cell-based, human; details: 48 hours treatment then overnight at 2% oxygen; AB1 3, 6, 10 nM; decitabine 200 nM; HU 75 μM
Method: FIGS. 9A-9B show representative data pertaining to various treatments and reduction of the level of sickle erythroid progenitors. After sickle progenitors were treated with the various drugs for 48 hours as indicated, and then incubated overnight in hypoxia conditions. […] In FIGS. 9A-9B, “UT” indicates untreated cells; “HU” indicates hydroxyurea; “DEC” indicates decitabine; and “AB1” indicates disclosed compound AB1; the concentrations are indicated, and concentration used is adjacent to the text indicating treatment compound.
We assessed effects of AB1 at the transcription levels by RT-qPCR analysis. […] Complementary studies at the protein levels were completed by flow cytometry and Western blot. […] To further support the notion that AB1 induces HbF expression, Western blot analysis was performed. […] It was observed that there was a dose-dependent 80% decrease in DNMT1 in sickle erythroid progenitors at the highest AB1 10 nM concentration (FIG. 8 D). […] After treatment for 48 hours, with the various drugs, the cells were incubated overnight at 2% oxygen, then fixed with formalin and the number of sickle versus non-sickle cells counted by phase contrast microscopy, a method previously published by the Pace (PI/PD) group (see Zhu, X., Li, B. & Pace, B. S. Haematologica 102, e285-e288, doi:10.3324/haematol.2016.160788 (2017)). […]

[3] = Cell viability of primary sickle erythroid progenitors by Trypan blue; type: cell-based; details: human, HU 75 μM, read-out: drop in cell viability
Method: as §1
Additional studies were carried out in primary sickle erythroid progenitors were next conducted. Using a previously established two-phase culture system, (See NRF2 mediates γ-globin gene regulation and fetal hemoglobin induction in human erythroid progenitors Xingguo Zhu et al., Experimental Hematology 2019; 70:85-96, incorporated by reference herein) AB1 was evaluated in progenitors cultured from peripheral blood mononuclear cells (PBMC) isolated from sickle cell subjects, at concentrations of 3, 6, and 10 nM. PBMCs were isolated by Ficoll® Paque separation and cultured in IMDM supplemented with erythropoietin (2 IU), stem cell factor (10 ng/mL) and Interleukin 3 (10 ng/mL). On day seven, drug controls HU 75 μM, Dec 200 nM and AB1 (3, 6, and 10 nM) were added for 48 hours. Cell viability was assessed with Trypan blue, and markers of erythroid differentiation were assessed by flow cytometry using antibodies for CD71 and CD235a, to evaluate changes in differentiation. […]

| SMILES | CD71+ progenitors (marker of early erythroid differentiation) ([1]; Dec 200 nM, AB1 at any dose tested (3, 6, 10 nM)) | level of CD235a+ cells (marker of terminal differentiation) ([1]; HU 75 μM, Dec 200 nM, AB1 3, 6, 10 nM) | F-cell levels (HbF; average of SCD patients, increase from 16%, all AB1 concentrations tested, Dec 200 nM) | decrease in sickle cells [2] | cytotoxicity at 48 h, 75 μM [3] | increase in CD71+ cells ([1]; HU 75 μM) | F-cell induction (HbF; HU 75 μM, all patient data combined) |
| --- | --- | --- | --- | --- | --- | --- | --- |
| Nc1ncn([C@H]2C[C@H](O)[C@@H](CO)O2)c(=O)n1 [Dec, 4-amino-1-(2-deoxy-b-D-erythro-pentofuranosyl)-1,3,5-triazin-2(1H)-one] | not affected | increased by all drugs except Dec | 22% | 80% | – | – | – |
| NC(=O)NO [HU, hydroxyurea] | – | – | – | 50% | 40% | 7 fold | not observed |
